Tests used:
[1] = test system: HAB1 with PYR/PYL receptors; test: Receptor-mediated PP2C inhibition assay with HAB1, Example 1; format: biochemical, Arabidopsis
Method: (§1) FIG. 2A-FIG. 2C. Novel ABA agonists inhibit PPC2 activity through multiple PYR/PYL. (A) Chemical structure of naturally occurring (+)-ABA and selected ABA agonists. (B) and (C) HAB1, ABU, and ABI2 PP2C enzyme activity based ABA-agonist assays for various receptors in the presence or absence of 10 μM each test chemical.
(§2) FIG. 3A-FIG. 3B. (A) Receptor-mediated dose-dependent inhibition of PP2C enzyme activity by ABA agonists and analogs. (B) Observed compound IC50 values in enzymatic HAB1 PP2C-based ABA-agonist assays.
(§3) FIG. 4A-FIG. 4B. Quinabactin activates multiple ABA receptors. (A) Chemical structures of ABA, pyrabactin and quinabactin. (B) Chemical-dependent inhibition of HAB1 by ABA receptors. IC50 values (nM) were determined as described in the methods using 50 nM HAB1, 50 nM and multiple concentrations of compounds; full dose response curves are provided as in FIG. 3. (nd) correspond to receptors that were not produced as active proteins. The phylogenetic tree is a Neighbor-Joining tree made using the JTT distance matrix in MEGA5 (Tamura K, et al. (2011) MEGA5: Molecular Evolutionary Genetics Analysis Using Maximum Likelihood, Evolutionary Distance, and Maximum Parsimony Methods. Molecular Biology and Evolution 28(10):2731-2739).
(§4) HAB1 and PYL proteins were expressed and purified as described previously (Park S Y, et al. (2009) Abscisic Acid Inhibits Type 2C Protein Phosphatases via the PYR/PYL Family of START Proteins. Science 324(5930):1068-1071), with minor modifications. To obtain GST-HAB1, -ABI1 and -ABI2 fusion proteins, the HAB1 cDNA was cloned into pGex-2T whereas ABI1 and ABI2 cDNAs were cloned into the vector pGex-4T-1. Expression was conducted in BL21[DE3]pLysS host cells. Transformed cells were pre-cultured overnight, transferred to LB medium and cultured at 30° C. to culture A600 of ˜0.5. The culture was then cooled on ice and MnCl2 added to 4 mM and IPTG added to 0.3 mM. After 16 hours incubation at 15° C., cells were harvested and recombinant proteins were purified on glutathione agarose as described previously (Park S Y, et al. (2009). To obtain 6×His-PYL receptor fusion proteins, receptor cDNAs for all 13 ABA receptors were cloned into the vector pET28 and expressed and purified as described previously (Mosquna A, et al. (2011) Potent and selective activation of abscisic acid receptors in vivo by mutational stabilization of their agonist-bound conformation. PNAS 108(51):20838-20843); this yielded soluble and functional protein (assessed using receptor-mediated PP2C inhibition assays) for all receptors except PYL7, PYL11 and PYL12. These three receptors were therefore alternatively expressed as maltose binding (MBP) fusion proteins using the vector pMAL-c; expression of these constructs was carried out in BL21 [DE3]pLysS host strain with the same induction conditions used for GST-HAB1. Recombinant MBP-PYL fusion proteins were purified from sonicated and cleared lysate using amylose resin (New England Biolab, Inc.) using the manufacturers purification instructions. This effort yielded an active MBP-PYL11 fusion protein, but failed for PYL7 and PYL12.
(§5) PP2C activity assays using recombinant receptors and PP2Cs were carried out as follows: Purified proteins were pre-incubated in 80 μl assay buffer containing 10 mM MnCl2, 3 μg bovine serum albumin and 0.1% 2-mercaptoethanol with ABA or ABA agonist for 30 minutes at 22° C. Reactions were started by adding 20 μL of a reaction solution containing 156 mM Tris-OAc, pH 7.9, 330 mM KOAc and 5 mM 4-methylumbelliferyl phosphate after which fluorescence measurements were immediately collected using an excitation filter 355 nm and an emission filter 460 nm on a Wallac plate reader. Reactions contained 50 nM PP2C and 100 nM PYR/PYL proteins, respectively.

[2] = molecular target: T1, HAB1 with PYR/PYL receptors (Arabidopsis thaliana, UniProt Q9FLB1); test: as above; format: biochemical; conditions: PYL5
T1 construct: 6xHis (N); made in house; host or cells: E. coli BL21[DE3]pLysS
T1 sequence (Q9FLB1 1-203): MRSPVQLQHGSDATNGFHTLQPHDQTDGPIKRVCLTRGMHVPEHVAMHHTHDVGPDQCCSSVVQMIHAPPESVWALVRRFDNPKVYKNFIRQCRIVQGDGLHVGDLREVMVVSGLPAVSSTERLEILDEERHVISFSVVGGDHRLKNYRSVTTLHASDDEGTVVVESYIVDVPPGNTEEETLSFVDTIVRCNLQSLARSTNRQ
T1 sequence (Q9CAJ0 1-511 partner): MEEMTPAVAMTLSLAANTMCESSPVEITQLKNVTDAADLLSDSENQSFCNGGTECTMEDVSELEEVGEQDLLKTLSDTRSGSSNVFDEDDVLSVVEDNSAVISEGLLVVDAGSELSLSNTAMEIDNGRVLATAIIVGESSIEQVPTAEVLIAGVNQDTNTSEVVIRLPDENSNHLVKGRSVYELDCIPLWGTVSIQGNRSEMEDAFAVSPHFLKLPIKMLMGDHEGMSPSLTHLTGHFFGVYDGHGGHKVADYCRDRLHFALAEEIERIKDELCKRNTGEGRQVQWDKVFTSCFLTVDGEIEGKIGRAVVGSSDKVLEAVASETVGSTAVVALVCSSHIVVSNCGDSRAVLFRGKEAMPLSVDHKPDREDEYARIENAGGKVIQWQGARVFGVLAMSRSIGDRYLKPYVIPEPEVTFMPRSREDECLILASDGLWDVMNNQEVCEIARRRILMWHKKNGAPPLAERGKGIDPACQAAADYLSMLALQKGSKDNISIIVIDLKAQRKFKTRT
Method: as §1, §2, §3, §4, §5

SMILES | PP2C inhibition of HAB1 ([1]; 10 μM, receptors PYR1, PYL1, PYL2, PYL3 and PYL5) [%] | IC50 values of receptor activation ([1]; PYR1, PYLs 1-3 and PYL5) | Agonist strength compared with ABA ([1]; PYR1 or PYL1) | Maximal PP2C inhibition compared with pyrabactin ([1]; all receptors tested) | PP2C inhibition at saturation [2] [%] | IC50 ([2]; read-out: IC50 of PYL5 activation) [nM]
CCCN1C(=O)CCc2cc(NS(=O)(=O)Cc3ccc(C)cc3)ccc21 [LC66C6] | > 70 | submicromolar | stronger PYR1 or PYL1 agonist than ABA | higher than that observed with pyrabactin with all receptors tested | – | –
O=S(=O)(NCc1ccccn1)c1ccc(Br)c2ccccc12 [pyrabactin, reference compound] | – | – | – | – | ~40 | 900

Source: patent publication US20160280651A1, “COMPOUNDS THAT INDUCE ABA RESPONSES” (THE REGENTS OF THE UNIVERSITY OF CALIFORNIA, priority 2013, published 2016)
